{"source": "patent EP0398925B1", "about": "“GROWTH INHIBITING AGENT AND THE USE THEREOF” (CHILDREN'S HOSPITAL CORPORATION, priority 1988, dated 1989)", "key": {"[1]": {"test_system": "chorioallantoic membrane of the chick embryo", "experiment": "CAM assay: avascular zone around a methylcellulose disc holding the test substance", "assay_type": "in vivo", "conditions": "for angiogenesis-inhibition: 100 µg of cyclodextrin with 50 µg of hydrocortisone, no successes at (+) or (++) level; for angiogenesis suppression activity: unmodified CDs with hydrocortisone (Examples 18-20)", "source_text": "A more economic bioassay makes use of the chorioallantoic membrane of the chick embryo. This test will for convenience be referred to hereinafter as the \"CAM assay\". For a more detailed description of the CAM assay, see Folkman et al., Science 221:719 (1983). A typical CAM assay, such as used for the evaluations in the examples in Section 7, infra, employs 16 eggs per experiment. A 2 mm diameter disk of methylcellulose containing the test substance is applied to the chorioallantoic membrane of a 6-day chick embryo, cultured in a Petri dish, in a humidified incubator with 3% carbon dioxide. Two days later (8-day embryo), the membrane is examined under a stereomicroscope at six- to ten-fold magnification. Inhibition of angiogenesis by the test substance is evidenced by the development of an avascular zone around the methylcellulose disc. An avascular zone of 4 mm is graded as (++) and an avascular zone of 2 mm is graded as (+). […] A rating of zero % reflects absence of inhibition or the test substance under the test conditions.\nThe sustained release methylcellulose discs are prepared by dispersing appropriate amount(s) of the test substance of substances in an 0.45% aqueous solution of methylcellulose, and depositing 10 microliter aliquots of the resulting solution in a Teflon mold, followed by air drying for about one hour in a laminar flow hood."}, "rabbit cornea [2]": {"test_system": "rabbit cornea", "experiment": "Rabbit cornea test, endotoxin Elvax implant, test substance given in a second Elvax implant", "assay_type": "in vivo", "conditions": "day 13, Elvax pellet with β-CD-TDS 15 µg/mm³ and/or cortexolone 30 µg/mm³, over 100% = stimulation; for Vessel Density, Inhibition (% of Untreated Control Group): length-density index", "protocol": "In another series of experiments, the antiangiogenic activity of a water-soluble cyclodextrin salt derivative in combination with cortexolone was evaluated using the rabbit cornea test as described by Gimbrone et al., J. Nat'l Cancer Inst. 52:413 (1974). In these experiments, E. coli endotoxin (17 µg/mm³) incorporated into sustained release polymer pellets of ethylene vinylacetate copolymer [Elvax, Sigma Chemical, St. Louis, MO (hereinafter \"Elvax\")] was implanted between the vascular limbal edge of the rabbit corneas. The test substance(s) were administered by means of a second Elvax implant incorporating the particular test substance.\nElvax containing endotoxin was implanted into the corneas of 12 rabbits. The animals were then divided into 4 groups and 4 eyes were treated for each group as follows: Group 1, received no further treatment and served as the control group; Group 2, β-CD-TDS at 15 µg/mm³ Elvax pellet; Group 3, cortexolone at 30 µg/mm³ Elvax pellet; and Group 4, a combination of β-CD-TDS and cortexolone incorporated into an Elvax pellat at a final concentration of 15 µg/mm³ Elvax of β-CD-TDS and 30 µg/mm³ Elvax of cortexolone. The vessel length of new capillary growth was measured every 2 days with a slit-lamp stereoscope at 10X using an ocular grid calibrated to ± 0.1 mm.\nThus, the vessel density was also evaluated and graded using the following scale: O=no vessels/cornea; 1=1-4 vessels/cornea; 2=5-20 vessels/cornea; 3=20-50 vessels/cornea; and 4=more than 50 vessels/cornea. This grade was then multiplied by mean maximal length of the vessels to obtain a semi-quantitative estimate of vessel density (length-density index) for each cornea."}, "rabbit cornea [3]": {"test_system": "rabbit cornea", "experiment": "Rabbit corneal test, endotoxin implant, test substance applied topically as eye drops", "assay_type": "in vivo", "conditions": "eye drops in saline; 9th day; hydrocortisone 0.5 mg/ml, β-CD-TDS 1.0 mg/ml (combination uses hydrocortisone-21-phosphate)", "source_text": "The rabbit corneal test described by Perlin, Fed. Proc. 36:101 (1977) modified as described below, was employed to examine the effectiveness of a combination of β-CD-TDS and hydrocortisone In this corneal test, a sustained release polymer impregnated with bacterial endotoxin was first implanted in rabbit corneas. Endotoxin slowly released from this implant induces angiogenesis in the cornea in a manner analogous to the neovascularization observed in patients rejecting a corneal transplant. Rather than employing a second implant containing the test substance to deliver such test substance as generally used, in the present experiments the test substance was applied topically to the cornea, i.e., in the form of eye drops. Animals having received an endotoxin-containing implant were divided into four groups and were treated by topical application (eye drops) as follows: Group 1, was not treated further and served as the control group; Group 2, received hydrocortisone alone (0.5 mg/ml); Group 3, hydrocortisone-21-phosphate and β-CD-TDS, (0.5 mg/ml and 1.0 mg/ml, respectively); and Group 4, β-CD-TDS (1.0 mg/ml). The diluent for the eye drops was saline in all cases. FIG. 3 (A-D) illustrates the results typically obtained on the 9th day post-implantation and treatment."}, "[4]": {"experiment": "Solubility in liquid water at zero °C", "assay_type": "physicochemical", "source_text": "The CD derivatives useful in the present invention are highly hydrophilic and therefore very water soluble. Without wishing to be bound by theory, we believe that a highly hydrophilic character is important to allow interaction with cellular surfaces. We also believe a very high water solubility of the derivative is an important factor which cooperatively interacts with the inherent complexing ability of the CD structure to provide effective inhibition of angiogenesis with an exogenous steroid, as provided by this invention. We believe that the hydrophlilic activity is roughly indicated by the affinity to water, as measured by water solubility. It is important to measure the same at 0°C since at higher temperatures the most suitable derivative have solubilities so high that meaningful measurements are difficult. […] All solubility measurements referred to herein relate to the solubility of the substantially anhydrous derivatives, and when these are salts, to the anhydrous sodium form. […] In order to make comparisons that included the very water-soluble CD sulfates, the solubilities of which were so high at room temperature that measurement was not practical, all solubility measurements were made in liquid water at zero °C. One can picture this to be a measure of the competition of the hydrophile bonding with water in relation to the orderly bonding of water to itself."}, "calf aortic SMC": {"test_system": "calf aortic SMC", "experiment": "Suppression of smooth muscle cell growth in tissue culture", "assay_type": "cell-based", "conditions": "each used alone, 0.03 µg/ml up to 400 µg/ml", "protocol": "(§1) The bioassay of this activity was made using tissue cultures of rat aortic SMC and calf aortic SMC, with dosages ranging from 0.03 µg/ml up to 400 µg/ml."}, "rat aortic SMC": {"test_system": "rat aortic SMC", "experiment": "Suppression of smooth muscle cell growth in tissue culture", "assay_type": "cell-based", "conditions": "each used alone, 0.03 µg/ml up to 400 µg/ml", "protocol": "as §1"}, "[5]": {"conditions": "compound 25 µg/10 µl with 50 µg to 60 µg of hydrocortisone in 10 µl of 0.45% methylcellulose"}, "[6]": {"conditions": "compound 100 µg/10 µl with 50 µg to 60 µg of hydrocortisone in 10 µl of 0.45% methylcellulose"}, "[7]": {"conditions": "25 µg/10 µl of β-CD-TDS with Cortexolone 50 µl/10 µl"}}, "data": [{"compound": "O=C(O)[C@@H]1CCN1", "note": "[(a) L-2-Azetidine, L-2-azetidinecarboxylic acid]", "values": [{"measurement": "% Avascular zones", "setting": "[1]; L-2-Azetidine 400 ug/10 µl, (a) 0 µg CD-TDS, (b) 25 µg CD-TDS", "result": 28, "unit": "%"}]}, {"compound": "C[C@]12CCC(=O)C=C1CC[C@@H]1[C@@H]2CC[C@@]2(C)[C@H]1CC[C@]2(O)C(=O)CO", "note": "[Cortexolone, 17 alpha, 21-dihydroxypregn-4-ene-3,20-dione]", "values": [{"measurement": "% Avascular zones", "setting": "[1]; Cortexolone alone, 50 µl/10 µl", "result": "zero"}, {"measurement": "Vessel Length, Inhibition (% of Untreated Control Group)", "setting": "rabbit cornea [2]", "result": 49, "unit": "%"}, {"measurement": "Vessel Length, Inhibition (% of Untreated Control Group)", "setting": "rabbit cornea [2]; listed as cortexolone", "result": "about 49%"}, {"measurement": "Vessel Density, Inhibition (% of Untreated Control Group)", "setting": "rabbit cornea [2]", "result": 61, "unit": "%"}, {"measurement": "Vessel Density, Inhibition (% of Untreated Control Group)", "setting": "rabbit cornea [2]; listed as cortexolone", "result": "about 61%"}]}, {"compound": "C[C@]12CCC(=O)C=C1CC[C@@H]1[C@@H]2[C@@H](O)C[C@@]2(C)[C@H]1CC[C@]2(O)C(=O)CO", "note": "[hydrocortisone, 11 beta, 17 alpha, 21-trihydroxypregn-4-ene-3,20-dione]", "values": [{"measurement": "effect on endotoxin-induced angiogenesis in the cornea", "setting": "rabbit cornea [3]", "result": "only a slight inhibition of angiogenesis"}]}, {"compound": "OC[C@H]1O[C@@H]2O[C@H]3[C@H](O)[C@@H](O)[C@@H](O[C@H]4[C@H](O)[C@@H](O)[C@@H](O[C@H]5[C@H](O)[C@@H](O)[C@@H](O[C@H]6[C@H](O)[C@@H](O)[C@@H](O[C@H]7[C@H](O)[C@@H](O)[C@@H](O[C@H]8[C@H](O)[C@@H](O)[C@@H](O[C@H]1[C@H](O)[C@H]2O)O[C@@H]8CO)O[C@@H]7CO)O[C@@H]6CO)O[C@@H]5CO)O[C@@H]4CO)O[C@@H]3CO", "note": "[β-CD, β-cyclodextrin]", "values": [{"measurement": "angiogenesis-inhibition", "setting": "[1]", "result": "total absence of angiogenesis-inhibition"}, {"measurement": "% Avascular zones", "setting": "[1]; [5]", "result": 0.04, "unit": "%"}, {"measurement": "% Avascular zones", "setting": "[1]; [6]", "result": 0, "unit": "%"}, {"measurement": "angiogenesis suppression activity", "setting": "[1]", "result": "no indication of angiogenesis suppression activity"}]}, {"compound": "α-cyclodextrin [α-CD]", "values": [{"measurement": "angiogenesis-inhibition", "setting": "[1]", "result": "total absence of angiogenesis-inhibition"}, {"measurement": "% Avascular zones", "setting": "[1]; [5]", "result": 0, "unit": "%"}, {"measurement": "% Avascular zones", "setting": "[1]; [6]", "result": "5± 0.3", "unit": "%"}, {"measurement": "angiogenesis suppression activity", "setting": "[1]", "result": "no indication of angiogenesis suppression activity"}, {"measurement": "Solubility 0°C, g/100 ml H₂O", "setting": "[4]", "result": 6, "unit": "g/100 ml H₂O"}]}, {"compound": "β-cyclodextrin tetradeca sulfate [β-CD-TDS]", "values": [{"measurement": "% Avascular zones", "setting": "[1]; [7]", "result": 85, "unit": "%"}, {"measurement": "% avascular zones (++) or greater", "setting": "[1]; [7]", "result": 31, "unit": "%"}, {"measurement": "% Avascular zones", "setting": "[1]; [5]", "result": "58± 7.0", "unit": "%"}, {"measurement": "% Avascular zones", "setting": "[1]; compound 50 µg/10 µl with 50 µg to 60 µg of hydrocortisone in 10 µl of 0.45% methylcellulose", "result": "75± 5.8", "unit": "%"}, {"measurement": "% Avascular zones", "setting": "[1]; [6]", "result": "55± 7.5", "unit": "%"}, {"measurement": "Solubility 0°C, g/100 ml H₂O", "setting": "[4]", "result": 42, "unit": "g/100 ml H₂O"}, {"measurement": "effectiveness relative to whole heparin in suppressing smooth muscle cell (SMC) growth", "setting": "calf aortic SMC", "result": "about three"}, {"measurement": "effectiveness relative to whole heparin in suppressing smooth muscle cell (SMC) growth", "setting": "rat aortic SMC", "result": "about three"}, {"measurement": "effect on endotoxin-induced angiogenesis in the cornea", "setting": "rabbit cornea [3]", "result": "slight stimulation of angiogenesis"}]}, {"compound": "γ-cyclodextrin [γ-CD]", "values": [{"measurement": "angiogenesis-inhibition", "setting": "[1]", "result": "total absence of angiogenesis-inhibition"}, {"measurement": "% Avascular zones", "setting": "[1]; [6]", "result": 0, "unit": "%"}, {"measurement": "angiogenesis suppression activity", "setting": "[1]", "result": "no indication of angiogenesis suppression activity"}]}]}
